# Measured values published in patent US10941157B2, “Pesticidal compositions and uses thereof” (Gilead Apollo, LLC, priority 2015, dated 2021).
# Read-outs that look alike come from different tables or passages of the source.
# Assays:
# Format in all cases: cell-based
# [1] = tested on: Fusarium virguliforme (Fv); assay: In vitro pathogen growth inhibition assay, Fv
# Outline: (§1)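 Spores of Dm, Fv and Pc were diluted in 17% V8 liquid medium; Rs used 1.5 mm mycelial plugs in ¼ PDB. Compounds from 2.5 mg/ml DMSO stocks were combined with inoculum, growth was read by OD600 at 24 and 48 h with blank subtraction, and the reported value is the concentration giving ≥90% inhibition.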
# [2] = tested on: Collectotrichum graminicola (Cg); assay: In vitro pathogen growth inhibition assay, Cg; settings: 48 h
# Outline: (§2)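 Value reported is the compound concentration reaching ≥90% growth inhibition, from OD readings at 24 and 48 h after blank subtraction, confirmed visually. Inoculum was spores diluted in 17% V8 medium, except Rs, using 1.5 mm mycelial plugs in ¼ PDB; actual compound concentration corrected via OD600.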
# [3] = tested on: Phytophthora capsici (Pc); assay: In vitro pathogen growth inhibition assay, Pc; settings: 48 h
# Outline: as §1
# Diplodia maydis (Dm) = assay: In vitro pathogen growth inhibition assay, Dm; settings: Stenocarpella maydis, 48 h
# Outline: as §1
# Rhizoctonia solani (Rs) = assay: In vitro pathogen growth inhibition assay, Rs (mycelial plugs); settings: Rhizoctonia solani, 48 h
# Outline: as §1
# [4] = tested on: Fusarium moniliforme (Fm); assay: In vitro pathogen growth inhibition assay, Fm; settings: Fusarium verticillioides
# Outline: as §2
# Septoria tritici (St) = assay: In vitro pathogen growth inhibition assay, St; settings: Zymoseptoria tritici, 48 h
# Outline: as §2
# Botrtyis cinerea (Bc) = assay: In vitro pathogen growth inhibition assay, Bc; settings: 48 h
# Outline: as §2
# [5] = ≥90% growth inhibition, 48 hours, vs 2% DMSO control, read-out: Compound Concentration (ppm) sufficient for ≥90% inhibition of Fv
# [6] = ≥90% growth inhibition, 48 hours, vs 2% DMSO control, read-out: Compound Concentration (ppm) sufficient for ≥90% inhibition of Cg
# [7] = ≥90% growth inhibition, 48 hours, vs 2% DMSO control, read-out: Compound Concentration (ppm) sufficient for ≥90% inhibition of Pc
# [8] = ≥90% growth inhibition, 48 hours, vs 2% DMSO control, read-out: Compound Concentration (ppm) sufficient for ≥90% inhibition of Dm
# [9] = ≥90% growth inhibition, mycelial plugs, 48 hours, vs 2% DMSO control, read-out: Compound Concentration (ppm) sufficient for ≥90% inhibition of Rs
# [10] = ≥90% growth inhibition, 48 hours, vs 2% DMSO control, read-out: Compound Concentration (ppm) sufficient for ≥90% inhibition of Fm
# [11] = ≥90% growth inhibition, 48 hours, vs 2% DMSO control, read-out: Compound Concentration (ppm) sufficient for ≥90% inhibition of St
# [12] = ≥90% growth inhibition, 48 hours, vs 2% DMSO control, read-out: Compound Concentration (ppm) sufficient for ≥90% inhibition of Bc
# [13] = concentration sufficient to ≥90% inhibition of growth, 48 hours vs 2% DMSO control, read-out: Compound Concentration (ppm) for ≥90% inhibition, Fv
# [14] = concentration sufficient to ≥90% inhibition of growth, 48 hours vs 2% DMSO control, read-out: Compound Concentration (ppm) for ≥90% inhibition, Cg
# [15] = concentration sufficient to ≥90% inhibition of growth, 48 hours vs 2% DMSO control, read-out: Compound Concentration (ppm) for ≥90% inhibition, Pc
# [16] = concentration sufficient to ≥90% inhibition of growth, 48 hours vs 2% DMSO control, read-out: Compound Concentration (ppm) for ≥90% inhibition, Dm
# [17] = concentration sufficient to ≥90% inhibition of growth, 48 hours vs 2% DMSO control, read-out: Compound Concentration (ppm) for ≥90% inhibition, Rs
# [18] = concentration sufficient to ≥90% inhibition of growth, 48 hours vs 2% DMSO control, read-out: Compound Concentration (ppm) for ≥90% inhibition, Fm
# [19] = concentration sufficient to ≥90% inhibition of growth, 48 hours vs 2% DMSO control, read-out: Compound Concentration (ppm) for ≥90% inhibition, St
# [20] = concentration sufficient to ≥90% inhibition of growth, 48 hours vs 2% DMSO control, read-out: Compound Concentration (ppm) for ≥90% inhibition, Bc
SMILES,"IC90 [1, 5] [µg/mL]","IC90 [2, 6] [µg/mL]","IC90 [3, 7] [µg/mL]",IC90 (Diplodia maydis (Dm); [8]) [µg/mL],IC90 (Rhizoctonia solani (Rs); [9]) [µg/mL],"IC90 [4, 10] [µg/mL]",IC90 (Septoria tritici (St); [11]) [µg/mL],IC90 (Botrtyis cinerea (Bc); [12]) [µg/mL],"IC90 [1, 13] [µg/mL]","IC90 [2, 14] [µg/mL]","IC90 [3, 15] [µg/mL]",IC90 (Diplodia maydis (Dm); [16]) [µg/mL],IC90 (Rhizoctonia solani (Rs); [17]) [µg/mL],"IC90 [4, 18] [µg/mL]",IC90 (Septoria tritici (St); [19]) [µg/mL],IC90 (Botrtyis cinerea (Bc); [20]) [µg/mL]
CCOC(=O)c1sc2c(c1C)c(=O)n(C(C)(C)C(=O)N1CCCC1)c(=O)n2C[C@H](OCCOC)c1cc(F)ccc1OC [Compound I-179],> 2,≥ 2,> 50,10,10,0.4,> 50,2,,,,,,,,
CCOC(=O)c1sc2c(c1C)c(=O)n(C(C)(C)C(N)=O)c(=O)n2C[C@H](OCCC#N)c1cc(F)ccc1OC [Compound I-180],10,50,> 50,> 50,10,0.4,> 50,2,,,,,,,,
CCOC(=O)c1sc2c(c1C)c(=O)n(C(C)(C)C(=O)N1CCCC1)c(=O)n2C[C@H](OCCC#N)c1cc(F)ccc1OC [Compound I-182],2,2,> 50,2,0.4,0.08,> 50,2,,,,,,,,
CCOC(=O)c1sc2c(c1C)c(=O)n(C(C)(C)C(N)=O)c(=O)n2C[C@H](OCCO)c1cc(F)ccc1OC [Compound I-183],50,> 50,> 50,> 50,2,2,> 50,10,,,,,,,,
COc1ccc(F)cc1[C@@H](O)Cn1c(=O)n(C(C)(C)C(=O)NC(C)C)c(=O)c2c(C)c(-n3cccn3)sc21 [Compound I-187],0.4,10,≥ 50,10,0.4,0.4,> 50,2,,,,,,,,
COc1ccc(F)cc1[C@H](Cn1c(=O)n(C(C)(C)C(N)=O)c(=O)c2c(C)c(-n3cccn3)sc21)OCCC#N [Compound I-190],,,,,,,,,50,> 50,> 50,> 50,10,10,> 50,10
COc1ccc(F)cc1[C@H](Cn1c(=O)n(C(C)(C)C(=O)N2CCCC2)c(=O)c2c(C)c(-n3cccn3)sc21)OCCC#N [Compound I-194],≥ 10,50,> 50,50,10,2,> 50,10,,,,,,,,
COc1ccc(F)cc1[C@H](Cn1c(=O)n(C(C)(C)C(=O)N2CCCC2)c(=O)c2c(C)c(-n3nccn3)sc21)OCCC#N [Compound I-195],2,2,> 50,≥ 2,2,2,> 50,2,,,,,,,,
COc1ccccc1[C@H](Cn1c(=O)n(C(C)(C)C(=O)N2CCCC2)c(=O)c2c(C)c(-n3nccn3)sc21)OCCC#N [Compound I-196],2,10,> 50,10,2,0.4,> 50,2,,,,,,,,
COc1ccc(F)cc1[C@H](Cn1c(=O)n([C@@H](C)C(=O)NC(C)C)c(=O)c2c(C)c(-n3nccn3)sc21)OCCC#N [Compound I-197],≥ 2,10,> 50,10,0.4,0.4,≥ 50,0.4,,,,,,,,
COc1ccc(F)cc1[C@H](Cn1c(=O)n([C@@H](C)C(N)=O)c(=O)c2c(C)c(-n3nccn3)sc21)OCCC#N [Compound I-199],,,,,,,,,10,50,> 50,50,50,10,> 50,10
COc1ccc(F)cc1[C@H](Cn1c(=O)n([C@H](C)C(N)=O)c(=O)c2c(C)c(-n3nccn3)sc21)OCCC#N [Compound I-200],2,> 50,> 50,> 50,2,2,> 50,2,,,,,,,,
COc1ccc(F)cc1[C@H](Cn1c(=O)n([C@@H](C)C(=O)N2CCCC2)c(=O)c2c(C)c(-n3nccn3)sc21)OCCC#N [Compound I-201],≥ 0.4,10,> 50,≥ 2,0.08,0.4,> 50,2,,,,,,,,
COc1ccc(F)cc1[C@H](Cn1c(=O)n(C(C)(C)C(=O)N2CCCC2)c(=O)c2c(C)c(-n3cccn3)sc21)OCCC#N [Compound I-203],,,,,,,,,50,50,> 50,50,10,10,> 50,50
COc1ccc(F)cc1[C@H](Cn1c(=O)n([C@@H](C)C(=O)N(C)C(C)C)c(=O)c2c(C)c(-n3nccn3)sc21)OCCC#N [Compound I-204],2,10,> 50,2,2,0.4,> 50,2,,,,,,,,
CNC(=O)C(C)(C)n1c(=O)c2c(C)c(-n3nccn3)sc2n(C[C@H](OCCC#N)c2cc(F)ccc2OC)c1=O [Compound I-207],2,10,> 50,≥ 2,0.08,0.08,> 50,2,,,,,,,,
